From PubChem BioAssay AID1963423 (Molecular Pharmacology Branch, DTP, NCI, 2024)
pIC50: −log10 of the molar value.

System: 439559-082-T-J2-PDC complex spheroid growth
Test: Anticancer human tumor 439559-082-T-J2-PDC patient-derived colon adenocarcinoma cell line growth inhibition [Asc]
Details: for pIC50: curve of first compound; for viability, T/C: stronger effect = lower value
How it was run: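 Tumor cells were grown as complex spheroids with human endothelial cells (HUVEC) and human mesenchymal stem cells as stroma. Agents were tested alone and in combination, in half-log steps down from the clinical Cmax, or from 10 microM where Cmax was unknown.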

[1] = second compound 0.1 µM, first compound 0.0316 µM
[2] = second compound 0.1 µM, first compound 0.1 µM
[3] = second compound 0.1 µM, first compound 0.316 µM
[4] = second compound 0.1 µM, first compound 1 µM
[5] = second compound 0.316 µM, first compound 0.0316 µM
[6] = second compound 0.316 µM, first compound 0.1 µM
[7] = second compound 0.316 µM, first compound 0.316 µM
[8] = second compound 0.316 µM, first compound 1 µM
[9] = second compound 1 µM, first compound 0.0316 µM
[10] = second compound 1 µM, first compound 0.1 µM
[11] = second compound 1 µM, first compound 0.316 µM
[12] = second compound 1 µM, first compound 1 µM
[13] = second compound 3.16 µM, first compound 0.0316 µM
[14] = second compound 3.16 µM, first compound 0.1 µM
[15] = second compound 3.16 µM, first compound 0.316 µM
[16] = second compound 3.16 µM, first compound 1 µM
[17] = second compound 10 µM, first compound 0.0316 µM
[18] = second compound 10 µM, first compound 0.1 µM
[19] = second compound 10 µM, first compound 0.316 µM
[20] = second compound 10 µM, first compound 1 µM
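Further: spheroids exposed to agents for 7 days starting day 3 after seeding.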
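Wherever viability, T/C is given: percent of DMSO vehicle control viability with 100% = vehicle.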

With `C#Cc1c(F)ccc2cc(O)cc(-c3ncc4c(N5CC6CCC(C5)N6)nc(OCC56CCCN5CC(F)C6)nc4c3F)c12` (stereo not given) + Cc1c(S(C)(=O)=O)c(-c2cc(F)cc(N3CCN(c4ccc(NS(=O)(=O)c5ccc(NC(CCN6CCC(C(=O)OCCCP(=O)(O)O)CC6)CSc6ccccc6)c(S(=O)(=O)C(F)(F)F)c5)cc4)CC3)c2)c(-c2ccc(Cl)cc2)n1C(C)C the pIC50 (second compound 0.1 µM) was 6.08, the pIC50 (second compound 0.316 µM) was 6.21 and the pIC50 (second compound 1 µM) was 6.17. For the same compound, the pIC50 (second compound 3.16 µM) was 6.73, the pIC50 (second compound 10 µM) was 7.26 and the viability, T/C [1] was 78.3%. It also gave a viability, T/C [2] of 77.3%, a viability, T/C [3] of 61.7% and a viability, T/C [4] of 47%. The viability, T/C (second compound 0.1 µM, first compound 3.16 µM) was 46.3%, the viability, T/C (second compound 0.1 µM, first compound 10 µM) was 37.1% and the viability, T/C [5] was 79%. It also gave a viability, T/C [6] of 75.1%, a viability, T/C [7] of 57.5% and a viability, T/C [8] of 43%. For the same compound, the viability, T/C (second compound 0.316 µM, first compound 3.16 µM) was 40.9%, the viability, T/C (second compound 0.316 µM, first compound 10 µM) was 31.6% and the viability, T/C [9] was 72.6%. For the same compound, the viability, T/C [10] was 66.4%, the viability, T/C [11] was 55.1% and the viability, T/C [12] was 44.1%. For the same compound, the viability, T/C (second compound 1 µM, first compound 3.16 µM) was 41.9%, the viability, T/C (second compound 1 µM, first compound 10 µM) was 27.4% and the viability, T/C [13] was 67.2%. The viability, T/C [14] was 55%, the viability, T/C [15] was 45.6% and the viability, T/C [16] was 34.6%. It also gave a viability, T/C (second compound 3.16 µM, first compound 3.16 µM) of 32.7%, a viability, T/C (second compound 3.16 µM, first compound 10 µM) of 22.5% and a viability, T/C [17] of 56.7%. The viability, T/C [18] was 41.2%, the viability, T/C [19] was 36.5% and the viability, T/C [20] was 24.4%. The viability, T/C (second compound 10 µM, first compound 3.16 µM) was 19.3% and the viability, T/C (second compound 10 µM, first compound 10 µM) was 14.9%.
`CNC(C)C(=O)NC1CN(S(=O)(=O)c2cccc(S(=O)(=O)N3CCC4CCC(C(=O)NC(c5ccccc5)c5ccccc5)N4C(=O)C(NC(=O)C(C)NC)C3)c2)CCC2CCC(C(=O)NC(c3ccccc3)c3ccccc3)N2C1=O` (stereo not given) + Cc1c(S(C)(=O)=O)c(-c2cc(F)cc(N3CCN(c4ccc(NS(=O)(=O)c5ccc(NC(CCN6CCC(C(=O)OCCCP(=O)(O)O)CC6)CSc6ccccc6)c(S(=O)(=O)C(F)(F)F)c5)cc4)CC3)c2)c(-c2ccc(Cl)cc2)n1C(C)C was tested, and the pIC50 (second compound 0.1 µM) was less than 6.00, the pIC50 (second compound 0.316 µM) was less than 6.00 and the pIC50 (second compound 1 µM) was less than 6.00. The pIC50 (second compound 3.16 µM) was less than 6.00, the pIC50 (second compound 10 µM) was less than 6.00 and the viability, T/C (second compound 0.1 µM, first compound 0.00316 µM) was 102%. For the same compound, the viability, T/C (second compound 0.1 µM, first compound 0.01 µM) was 111%, the viability, T/C [1] was 110% and the viability, T/C [2] was 88.2%. The viability, T/C [3] was 88%, the viability, T/C [4] was 86.3% and the viability, T/C (second compound 0.316 µM, first compound 0.00316 µM) was 97.9%. The viability, T/C (second compound 0.316 µM, first compound 0.01 µM) was 105%, the viability, T/C [5] was 108% and the viability, T/C [6] was 85%. For the same compound, the viability, T/C [7] was 83%, the viability, T/C [8] was 79.8% and the viability, T/C (second compound 1 µM, first compound 0.00316 µM) was 97.5%. The viability, T/C (second compound 1 µM, first compound 0.01 µM) was 103%, the viability, T/C [9] was 104% and the viability, T/C [10] was 87.1%. It also gave a viability, T/C [11] of 93.9%, a viability, T/C [12] of 80% and a viability, T/C (second compound 3.16 µM, first compound 0.00316 µM) of 91.2%. The viability, T/C (second compound 3.16 µM, first compound 0.01 µM) was 99.2%, the viability, T/C [13] was 102% and the viability, T/C [14] was 71%. For the same compound, the viability, T/C [15] was 84%, the viability, T/C [16] was 69.7% and the viability, T/C (second compound 10 µM, first compound 0.00316 µM) was 75.5%. The viability, T/C (second compound 10 µM, first compound 0.01 µM) was 80.4%, the viability, T/C [17] was 90.6% and the viability, T/C [18] was 72.8%. For the same compound, the viability, T/C [19] was 64.7% and the viability, T/C [20] was 66.1%.
`Cc1nc(N2CCC3(CC2)COC(C)C3N)c(CO)nc1Sc1ccnc(N)c1Cl` (stereo not given) + Cc1c(S(C)(=O)=O)c(-c2cc(F)cc(N3CCN(c4ccc(NS(=O)(=O)c5ccc(NC(CCN6CCC(C(=O)OCCCP(=O)(O)O)CC6)CSc6ccccc6)c(S(=O)(=O)C(F)(F)F)c5)cc4)CC3)c2)c(-c2ccc(Cl)cc2)n1C(C)C showed a pIC50 (second compound 0.1 µM) of less than 5.52, a pIC50 (second compound 0.316 µM) of less than 5.52 and a pIC50 (second compound 1 µM) of less than 5.52. The pIC50 (second compound 3.16 µM) was less than 5.52, the pIC50 (second compound 10 µM) was 5.56 and the viability, T/C (second compound 0.1 µM, first compound 0.00949 µM) was 109%. It also gave a viability, T/C (second compound 0.1 µM, first compound 0.03 µM) of 115%, a viability, T/C (second compound 0.1 µM, first compound 0.0949 µM) of 100% and a viability, T/C (second compound 0.1 µM, first compound 0.3 µM) of 82.6%. For the same compound, the viability, T/C (second compound 0.1 µM, first compound 0.949 µM) was 86.5%, the viability, T/C (second compound 0.1 µM, first compound 3 µM) was 73.4% and the viability, T/C (second compound 0.316 µM, first compound 0.00949 µM) was 96.4%. The viability, T/C (second compound 0.316 µM, first compound 0.03 µM) was 107%, the viability, T/C (second compound 0.316 µM, first compound 0.0949 µM) was 103% and the viability, T/C (second compound 0.316 µM, first compound 0.3 µM) was 84.5%. For the same compound, the viability, T/C (second compound 0.316 µM, first compound 0.949 µM) was 77.9%, the viability, T/C (second compound 0.316 µM, first compound 3 µM) was 72.4% and the viability, T/C (second compound 1 µM, first compound 0.00949 µM) was 89.5%. For the same compound, the viability, T/C (second compound 1 µM, first compound 0.03 µM) was 97.5%, the viability, T/C (second compound 1 µM, first compound 0.0949 µM) was 98.2% and the viability, T/C (second compound 1 µM, first compound 0.3 µM) was 76.4%. The viability, T/C (second compound 1 µM, first compound 0.949 µM) was 63%, the viability, T/C (second compound 1 µM, first compound 3 µM) was 70.4% and the viability, T/C (second compound 3.16 µM, first compound 0.00949 µM) was 84%. The viability, T/C (second compound 3.16 µM, first compound 0.03 µM) was 95.7%, the viability, T/C (second compound 3.16 µM, first compound 0.0949 µM) was 92.1% and the viability, T/C (second compound 3.16 µM, first compound 0.3 µM) was 63.6%. The viability, T/C (second compound 3.16 µM, first compound 0.949 µM) was 65.5%, the viability, T/C (second compound 3.16 µM, first compound 3 µM) was 56.7% and the viability, T/C (second compound 10 µM, first compound 0.00949 µM) was 74.3%. For the same compound, the viability, T/C (second compound 10 µM, first compound 0.03 µM) was 75%, the viability, T/C (second compound 10 µM, first compound 0.0949 µM) was 72.7% and the viability, T/C (second compound 10 µM, first compound 0.3 µM) was 60.2%. The viability, T/C (second compound 10 µM, first compound 0.949 µM) was 60.3% and the viability, T/C (second compound 10 µM, first compound 3 µM) was 49.1%.
